Experimental data reported in patent US10358463B2, “Immunomodulators” (BRISTOL-MYERS SQUIBB COMPANY, priority 2016, dated 2019).
Numbered stars: 1 amine (or outer) side, 2 acyl side, 3 side chain; on linkers, the order of the positions; unused ones are H or OH. Bridge positions count the residues as written; N and C are the ends. Square brackets hold non-standard residues; d marks the D form. Peptide text beside a SMILES is read from it. Trp(1-CH2CONHSO2Me) = CS(=O)(=O)NC(=O)Cn1cc(C[C@H](N)C(=O)O)c2ccccc21; Trp(7-aza,1-CH2COOH) = N[C@@H](Cc1cn(CC(=O)O)c2ncccc12)C(=O)O; X1 = O=C(O)Cn1c(C(=O)O)c(C[C@H](N[*:1])C(=O)[*:2])c2ccccc21; X10 = COc1ccc2c(c1)c(C[C@H](N[*:1])C(=O)[*:2])cn2CC(=O)O; X18 = O=C(O)Cn1c(=O)n(C[C@H](N[*:1])C(=O)[*:2])c2ccccc21; X13 = O=C(O)Cc1nc(C[C@H](N[*:1])C(=O)[*:2])c2ccccn12; X7 = O=C(O)Cc1nc(C[C@H](N[*:1])C(=O)[*:2])n2ccccc12; X16 = O=C([C@H](Cc1cccc2ccncc12)N[*:1])[*:2]; Phe(4-Cl) = N[C@@H](Cc1ccc(Cl)cc1)C(=O)O; Phe(4-F) = N[C@@H](Cc1ccc(F)cc1)C(=O)O; Hyp = O=C(O)[C@@H]1C[C@@H](O)CN1; NMeNle = CCCC[C@H](NC)C(=O)O; Pen = CC(C)(S)[C@H](N)C(=O)O; Pip = O=C(O)[C@@H]1CCCCN1; NMeA = CN[C@@H](C)C(=O)O; Dab = NCC[C@H](N)C(=O)O; Dap = NC[C@H](N)C(=O)O

target: T1, PD-1-Ig binding to PD-L1-TVMV-His (PD-L1-His) (Homo sapiens, UniProt Q9NZQ7); test: PD-1/PD-L1 Homogenous Time-Resolved Fluorescence (HTRF) binding assay; conditions: PD-1-Ig (20 nM)/PD-L1-His (10 nM); range class
T1 construct: hPDL1 (19-239)-TVMV-His; TVMV protease cleavage site (C); made in house; host or cells: HEK293T cells
Source text: The ability of the macrocyclic peptides of the present disclosure to bind to PD-L1 was investigated using a PD-1/PD-L1 Homogenous Time-Resolved Fluorescence (HTRF) binding assay.
Homogenous Time-Resolved Fluorescence (HTRF) Assays of Binding of Soluble PD-1 to Soluble PD-L1. Soluble PD-1 and soluble PD-L1 refers to proteins with carboxyl-end truncations that remove the transmembrane-spanning regions and are fused to heterologous sequences, specifically the Fc portion of the human immunoglobuling G sequence (Ig) or the hexahistidine epitope tag (His). All binding studies were performed in an HTRF assay buffer consisting of dPBS supplemented with 0.1% (w/v) bovine serum albumin and 0.05% (v/v) Tween-20. For the PD-1-Ig/PD-L1-His binding assay, inhibitors were pre-incubated with PD-L1-His (10 nM final) for 15 m in 4 μl of assay buffer, followed by addition of PD-1-Ig (20 nM final) in 1 μl of assay buffer and further incubation for 15 m. PD-L1 fusion proteins from either human, cynomologous macaques, mouse, or other species were used. HTRF detection was achieved using europium crypate-labeled anti-Ig monoclonal antibody (1 nM final) and allophycocyanin (APC) labeled anti-His monoclonal antibody (20 nM final). Antibodies were diluted in HTRF detection buffer and 5 μl was dispensed on top of binding reaction. The reaction was allowed to equilibrate for 30 minutes and signal (665 nm/620 nm ratio) was obtained using an EnVision fluorometer. Additional binding assays were established between PD-1-Ig/PD-L2-His (20 and 5 nM, respectively), CD80-His/PD-L1-Ig (100 and 10 nM, respectively) and CD80-His/CTLA4-Ig (10 and 5 nM, respectively). Binding/competition studies between biotinylated Compound No. 71 and human PD-L1-His were performed as follows. Macrocyclic peptide inhibitors were pre-incubated with PD-L1-His (10 nM final) for 60 minutes in 4 μl of assay buffer followed by addition of biotinylated Compound No. 71 (0.5 nM final) in 1 μl of assay buffer. Binding was allowed to equilibrate for 30 minutes followed by addition of europium crylated labeled Streptavidin (2.5 pM final) and APC-labeled anti-His (20 nM final) in 5 μl of HTRF buffer. The reaction was allowed to equilibrate for 30 m and signal (665 nm/620 nm ratio) was obtained using an EnVision fluorometer.
Recombinant Proteins. Carboxyl-truncated human PD-1 (amino acids 25-167) with a C-terminal human Ig epitope tag [hPD-1 (25-167)-3S-IG] and human PD-L1 (amino acids 18-239) with a C-terminal His epitope tag [hPD-L1(19-239)-tobacco vein mottling virus protease cleavage site (TVMV)-His] were expressed in HEK293T cells and purified sequentially by recombinant Protein A affinity chromatography and size exclusion chromatography. Human PD-L2-His (Sino Biologicals), CD80-His (Sino Biologicals), CTLA4-Ig (RnD Systems) were all obtained through commercial sources.

T1 sequence (Q9NZQ7 with tags, fused parts or gaps): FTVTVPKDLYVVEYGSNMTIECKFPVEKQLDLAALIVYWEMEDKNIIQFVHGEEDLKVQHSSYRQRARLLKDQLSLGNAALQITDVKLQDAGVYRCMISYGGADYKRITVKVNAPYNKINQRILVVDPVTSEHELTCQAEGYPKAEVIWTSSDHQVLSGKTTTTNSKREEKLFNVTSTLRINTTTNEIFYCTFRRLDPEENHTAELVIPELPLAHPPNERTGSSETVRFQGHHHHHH

SMILES	IC50
CCCC[C@H]1C(=O)N(C)[C@@H](CCCC)C(=O)N[C@@H](CC(C)C)C(=O)N[C@H](C(N)=O)C(C)(C)SCC(=O)N[C@@H](Cc2ccc(Cl)cc2)C(=O)N2CCCC[C@H]2C(=O)N[C@@H](CC(=O)O)C(=O)N2CCC[C@H]2C(=O)N[C@@H](Cc2cnc[nH]2)C(=O)N[C@@H](CCC(=O)O)C(=O)N2C[C@H](O)C[C@H]2C(=O)N[C@@H](Cc2c[nH]c3ccccc23)C(=O)N[C@@H](CCN)C(=O)N[C@@H](Cc2cn(CC(=O)NS(C)(=O)=O)c3ccccc23)C(=O)N1C [Example 1008] ({CH2CO}-[Phe(4-Cl)][Pip]DPHE[Hyp]W[Dab][Trp(1-CH2CONHSO2Me)][NMeNle][NMeNle]L[Pen]-NH2; thioether N-14)	1 to 9.9 nM
CCCC[C@H]1C(=O)N(C)[C@@H](CCCC)C(=O)N[C@@H](CC(C)C)C(=O)N[C@H](C(=O)NCC(N)=O)CSCC(=O)N[C@@H](Cc2ccc(O)cc2)C(=O)N(C)[C@@H](C)C(=O)N[C@@H](CC(N)=O)C(=O)N2CCC[C@H]2C(=O)N[C@@H](CN)C(=O)N[C@@H](CC(C)C)C(=O)N2C[C@H](O)C[C@H]2C(=O)N[C@@H](Cc2c[nH]c3ccccc23)C(=O)N[C@@H](CCN)C(=O)N[C@@H](Cc2c(C(=O)O)n(CC(=O)O)c3ccccc23)C(=O)N1C [Example 1013] ({CH2CO}-Y[NMeA]NP[Dap]L[Hyp]W[Dab][X1][NMeNle][NMeNle]LCG-NH2; thioether N-14)	10 to 99 nM
CCCC[C@H]1C(=O)N(C)[C@@H](CCCC)C(=O)N[C@@H](CC(C)C)C(=O)N[C@H](C(N)=O)C(C)(C)SCC(=O)N[C@@H](Cc2ccc(F)cc2)C(=O)N2CCCC[C@H]2C(=O)N[C@@H](CC(=O)O)C(=O)N2CCC[C@H]2C(=O)N[C@@H](CN)C(=O)N[C@@H](CCC(=O)O)C(=O)N2C[C@H](O)C[C@H]2C(=O)N[C@@H](Cc2c[nH]c3ccccc23)C(=O)N[C@@H](CCN)C(=O)N[C@@H](Cc2cn(CC(=O)NS(C)(=O)=O)c3ccccc23)C(=O)N1C [Example 1003] ({CH2CO}-[Phe(4-F)][Pip]DP[Dap]E[Hyp]W[Dab][Trp(1-CH2CONHSO2Me)][NMeNle][NMeNle]L[Pen]-NH2; thioether N-14)	1 to 9.9 nM
CCCC[C@H]1C(=O)N(C)[C@@H](CCCC)C(=O)N[C@@H](CC(C)C)C(=O)N[C@H](C(=O)NCC(N)=O)CSCC(=O)N[C@@H](Cc2ccc(O)cc2)C(=O)N(C)[C@@H](C)C(=O)N[C@@H](CC(=O)O)C(=O)N2CCC[C@H]2C(=O)N[C@@H](Cc2cnc[nH]2)C(=O)N[C@@H](CCCCN)C(=O)N2C[C@H](O)C[C@H]2C(=O)N[C@@H](Cc2c[nH]c3ccccc23)C(=O)N[C@@H](CCCCN)C(=O)N[C@@H](Cc2cn(Cc3nnn[nH]3)c3ccccc23)C(=O)N1C [Example 1002]	1 to 9.9 nM
CCCC[C@H]1C(=O)N(C)[C@@H](CCCC)C(=O)N[C@@H](CC(C)C)C(=O)N[C@H](C(N)=O)C(C)(C)SCC(=O)N[C@@H](Cc2ccc(Cl)cc2)C(=O)N2CCCC[C@H]2C(=O)N[C@@H](CC(=O)O)C(=O)N2CCC[C@H]2C(=O)N[C@@H](CN)C(=O)N[C@@H](CCC(=O)O)C(=O)N2C[C@H](O)C[C@H]2C(=O)N[C@@H](Cc2c[nH]c3ccccc23)C(=O)N[C@@H](CCN)C(=O)N[C@@H](Cc2cn(CC(=O)NS(C)(=O)=O)c3ccccc23)C(=O)N1C [Example 1005] ({CH2CO}-[Phe(4-Cl)][Pip]DP[Dap]E[Hyp]W[Dab][Trp(1-CH2CONHSO2Me)][NMeNle][NMeNle]L[Pen]-NH2; thioether N-14)	1 to 9.9 nM
CCCC[C@H]1C(=O)N(C)[C@@H](CCCC)C(=O)N[C@@H](CC(C)C)C(=O)N[C@H](C(=O)NCC(N)=O)CSCC(=O)N[C@@H](Cc2ccc(O)cc2)C(=O)N(C)[C@@H](C)C(=O)N[C@@H](CC(N)=O)C(=O)N2CCC[C@H]2C(=O)N[C@@H](CN)C(=O)N[C@@H](CC(C)C)C(=O)N2C[C@H](O)C[C@H]2C(=O)N[C@@H](Cc2c[nH]c3ccccc23)C(=O)N[C@@H](CCN)C(=O)N[C@@H](Cc2nc(CC(=O)O)n3ccccc23)C(=O)N1C [Example 1016] ({CH2CO}-Y[NMeA]NP[Dap]L[Hyp]W[Dab][X13][NMeNle][NMeNle]LCG-NH2; thioether N-14)	1 to 9.9 nM
CCCC[C@H]1C(=O)N(C)[C@@H](CCCC)C(=O)N[C@@H](CC(C)C)C(=O)N[C@H](C(=O)NCC(N)=O)CSCC(=O)N[C@@H](Cc2ccc(O)cc2)C(=O)N(C)[C@@H](C)C(=O)N[C@@H](CC(N)=O)C(=O)N2CCC[C@H]2C(=O)N[C@@H](CN)C(=O)N[C@@H](CC(C)C)C(=O)N2C[C@H](O)C[C@H]2C(=O)N[C@@H](Cc2c[nH]c3ccccc23)C(=O)N[C@@H](CCN)C(=O)N[C@@H](Cn2c(=O)n(CC(=O)O)c3ccccc32)C(=O)N1C [Example 1015] ({CH2CO}-Y[NMeA]NP[Dap]L[Hyp]W[Dab][X18][NMeNle][NMeNle]LCG-NH2; thioether N-14)	1 to 9.9 nM

Second part, the compound after the results:

IC50	SMILES
1 to 9.9 nM	CCCC[C@H]1C(=O)N(C)[C@@H](CCCC)C(=O)N[C@@H](CC(C)C)C(=O)N[C@H](C(N)=O)CSCC(=O)N[C@@H](Cc2ccc(O)cc2)C(=O)N(C)[C@@H](C)C(=O)N[C@@H](CC(N)=O)C(=O)N2CCC[C@H]2C(=O)N[C@@H](CN)C(=O)N[C@@H](CC(C)C)C(=O)N2C[C@H](O)C[C@H]2C(=O)N[C@@H](Cc2c[nH]c3ccccc23)C(=O)N[C@@H](CCN)C(=O)N[C@@H](Cc2cn(CC(=O)O)c3ccc(OC)cc23)C(=O)N1C [Example 10503] ({CH2CO}-Y[NMeA]NP[Dap]L[Hyp]W[Dab][X10][NMeNle][NMeNle]LC-NH2; thioether N-14)
1 to 9.9 nM	CCCC[C@H]1C(=O)N(C)[C@@H](CCCC)C(=O)N[C@@H](CC(C)C)C(=O)N[C@H](C(=O)NCC(N)=O)CSCC(=O)N[C@@H](Cc2ccc(O)cc2)C(=O)N(C)[C@@H](C)C(=O)N[C@@H](CC(=O)O)C(=O)N2CCC[C@H]2C(=O)N[C@@H](Cc2cnc[nH]2)C(=O)N[C@@H](CCCCN)C(=O)N2C[C@H](O)C[C@H]2C(=O)N[C@@H](Cc2c[nH]c3ccccc23)C(=O)N[C@@H](CCCCN)C(=O)N[C@@H](Cc2cn(CC(=O)NS(C)(=O)=O)c3ccccc23)C(=O)N1C [Example 1019] ({CH2CO}-Y[NMeA]DPHK[Hyp]WK[Trp(1-CH2CONHSO2Me)][NMeNle][NMeNle]LCG-NH2; thioether N-14)
1 to 9.9 nM	CCCC[C@H]1C(=O)N(C)[C@@H](CCCC)C(=O)N[C@@H](CC(C)C)C(=O)N[C@H](C(=O)NCC(N)=O)CSCC(=O)N[C@@H](Cc2ccc(O)cc2)C(=O)N(C)[C@@H](C)C(=O)N[C@@H](CC(N)=O)C(=O)N2CCC[C@H]2C(=O)N[C@@H](CN)C(=O)N[C@@H](CC(C)C)C(=O)N2C[C@H](O)C[C@H]2C(=O)N[C@@H](Cc2c[nH]c3ccccc23)C(=O)N[C@@H](CCN)C(=O)N[C@@H](Cc2nc(CC(=O)O)c3ccccn23)C(=O)N1C [Example 1017] ({CH2CO}-Y[NMeA]NP[Dap]L[Hyp]W[Dab][X7][NMeNle][NMeNle]LCG-NH2; thioether N-14)
10 to 99 nM	CCCC[C@H]1C(=O)N(C)[C@@H](CCCC)C(=O)N[C@@H](CC(C)C)C(=O)N[C@H](C(=O)NCC(N)=O)CSCC(=O)N[C@@H](Cc2ccc(O)cc2)C(=O)N(C)[C@@H](C)C(=O)N[C@@H](CC(N)=O)C(=O)N2CCC[C@H]2C(=O)N[C@@H](CN)C(=O)N[C@@H](CC(C)C)C(=O)N2C[C@H](O)C[C@H]2C(=O)N[C@@H](Cc2c[nH]c3ccccc23)C(=O)N[C@@H](CCN)C(=O)N[C@@H](Cc2cn(CC(=O)O)c3ncccc23)C(=O)N1C [Example 10505] ({CH2CO}-Y[NMeA]NP[Dap]L[Hyp]W[Dab][Trp(7-aza,1-CH2COOH)][NMeNle][NMeNle]LCG-NH2; thioether N-14)
10 to 99 nM	CCCC[C@H]1C(=O)N(C)[C@@H](CCCC)C(=O)N[C@@H](C)C(=O)N[C@H](C(=O)NCC(N)=O)CSCC(=O)N[C@@H](Cc2ccc(O)cc2)C(=O)N(C)[C@@H](C)C(=O)N[C@@H](CC(N)=O)C(=O)N2CCC[C@H]2C(=O)N[C@@H](Cc2cnc[nH]2)C(=O)N[C@@H](CCC(N)=O)C(=O)N2C[C@H](O)C[C@H]2C(=O)N[C@@H](Cc2c[nH]c3ccccc23)C(=O)N[C@@H](CO)C(=O)N[C@@H](Cc2cccc3ccncc23)C(=O)N1C [Example 1271] ({CH2CO}-Y[NMeA]NPHQ[Hyp]WS[X16][NMeNle][NMeNle]ACG-NH2; thioether N-14)
